# System: participants with SSc-RP
# Assay: SHAQ - Alternative Disability Index
# Type: in vivo, human
# Design: key to SHAQ Alternative Disability Index, In-Clinic Visit (Day 12), Median: mean of 8 category scores, 0 = no difficulty to 3 = unable to do
# Conditions: for % change in Alternative Disability Index: SHAQ, mITT Part A; for alternative disability index, Change from Baseline, Mean / alternative disability index, Change from Baseline, Median / alternative disability index, Percent Change from Baseline, Mean / alternative disability index, Percent Change from Baseline, Median / alternative disability index, In Clinic Visit (Day 12), Mean / alternative disability index, In Clinic Visit (Day 12), Median: Modified ITT Population-Part A, tadalafil 5 mg, alone or combined as labelled
# From the text: The SHAQ is used to calculate a Disability Index to assess the participant qualify of life. The eight categories assessed by the Disability Index are 1) dressing and grooming, 2) arising, 3) eating, 4) walking, 5) hygiene, 6) reach, 7) grip, and 8) common daily activities. For each of these categories, patients report the amount of difficulty they have in performing two or three specific activities.
# There are four possible responses for the Disability Index questions: • Without any difficulty=0 • With some difficulty=1 • With much difficulty=2 • Unable to do=3 • The highest score reported by the patient for any component question of the eight categories determines the score for that category. • If a component question is left blank or the response is too ambiguous to assign a score, then the score for that category is determined by the remaining completed question(s). • If all component questions are blank or if more than one answer is given, then follow up with the respondent is required. • If the respondent's mark is between the response columns, then move it to the closest one. If it's directly between the two, move it to the higher one.
# The aid and device variables are not used to calculate the alternative disability index; it is calculated by adding the scores for each of the categories and dividing by the number of categories answered. This gives a score in the 0 to 3 range.
# [1] = Any Cilnidipine (N = 17), Day 12, PP Population, Part A
# [2] = Cilnidipine 10 mg, SSc patients, PP, Part A
# [3] = Cilnidipine 20 mg, SSc patients, PP, Part A
# [4] = Pooled Cilnidipine 10 mg and Cilnidipine 10 mg + Tadalafil 5 mg (N = 9), Day 12, PP Population, Part A
# [5] = Pooled Cilnidipine (N = 8), Day 12, PP Population, Part A
compound,measurement,setting,value
COCCOC(=O)C1=C(C)NC(C)=C(C(=O)OC/C=C/c2ccccc2)C1c1cccc([N+](=O)[O-])c1 (stereo not shown) [Cilnidipine],"SHAQ Alternative Disability Index, Change from Baseline, Mean (SD)",[1],−0.006 (0.1912)
same,"SHAQ Alternative Disability Index, Change from Baseline, Median",[1],0.000
same,"SHAQ Alternative Disability Index, In-Clinic Visit (Day 12), Mean (SD)",[1],0.450 (0.4926)
same,"SHAQ Alternative Disability Index, In-Clinic Visit (Day 12), Median",[1],0.250
same,"SHAQ Alternative Disability Index, Percent Change from Baseline, Mean (SD)",[1],21.32 (100.525) %
same,"SHAQ Alternative Disability Index, Percent Change from Baseline, Median",[1],−10.00%
same,"SHAQ Alternative Disability Index, Change from Baseline, Max",[2],0.38
same,"SHAQ Alternative Disability Index, Change from Baseline, Mean",[2],0.063
same,"SHAQ Alternative Disability Index, Change from Baseline, Median",[2],0.000
same,"SHAQ Alternative Disability Index, Change from Baseline, Min",[2],"−0.13,"
same,"SHAQ Alternative Disability Index, Change from Baseline, Q1",[2],"−0.063,"
same,"SHAQ Alternative Disability Index, Change from Baseline, Q3",[2],0.188
same,"SHAQ Alternative Disability Index, Day 12, Max",[2],1.25
same,"SHAQ Alternative Disability Index, Day 12, Mean",[2],0.563
same,"SHAQ Alternative Disability Index, Day 12, Median",[2],0.500
same,"SHAQ Alternative Disability Index, Day 12, Min",[2],"0.00,"
same,"SHAQ Alternative Disability Index, Day 12, Q1",[2],"0.000,"
same,"SHAQ Alternative Disability Index, Percent Change from Baseline, Max",[2],42.9
same,"SHAQ Alternative Disability Index, Percent Change from Baseline, Mean",[2],15.87
same,"SHAQ Alternative Disability Index, Percent Change from Baseline, Median",[2],15.87
same,"SHAQ Alternative Disability Index, Percent Change from Baseline, Min",[2],"−11.1,"
same,"SHAQ Alternative Disability Index, Percent Change from Baseline, Q1",[2],"−11.11,"
same,"SHAQ Alternative Disability Index, Percent Change from Baseline, Q3",[2],42.86
same,% change in Alternative Disability Index,Cilnidipine 20 mg (n = 3),−42%
same,"SHAQ Alternative Disability Index, Change from Baseline, Max",[3],0.25
same,"SHAQ Alternative Disability Index, Change from Baseline, Mean",[3],0.000
same,"SHAQ Alternative Disability Index, Change from Baseline, Median",[3],−0.063
same,"SHAQ Alternative Disability Index, Change from Baseline, Min",[3],"−0.13,"
same,"SHAQ Alternative Disability Index, Day 12, Max",[3],0.50
same,"SHAQ Alternative Disability Index, Day 12, Mean",[3],0.219
same,"SHAQ Alternative Disability Index, Day 12, Median",[3],0.188
same,"SHAQ Alternative Disability Index, Day 12, Min",[3],"0.00,"
same,"SHAQ Alternative Disability Index, Day 12, Q1",[3],"0.063,"
same,"SHAQ Alternative Disability Index, Day 12, Q3",[3],0.375
same,"SHAQ Alternative Disability Index, Percent Change from Baseline, Max",[3],100.0
same,"SHAQ Alternative Disability Index, Percent Change from Baseline, Mean",[3],5.56
same,"SHAQ Alternative Disability Index, Percent Change from Baseline, Median",[3],−33.33
same,"SHAQ Alternative Disability Index, Percent Change from Baseline, Min",[3],"−50.0,"
same,"SHAQ Alternative Disability Index, Percent Change from Baseline, Q1",[3],"−50.00,"
same,"SHAQ Alternative Disability Index, Percent Change from Baseline, Q3",[3],100.00
same,"alternative disability index, Change from Baseline, Mean","Day 12, dose cilnidipine 10 mg",0.063
same,"alternative disability index, Change from Baseline, Median","Day 12, dose cilnidipine 10 mg",0.000
same,"alternative disability index, Percent Change from Baseline, Mean","Day 12, dose cilnidipine 10 mg",15.87%
same,"alternative disability index, Percent Change from Baseline, Median","Day 12, dose cilnidipine 10 mg",15.87%
same,"alternative disability index, Change from Baseline, Mean","Day 12, dose cilnidipine 20 mg",−0.083
same,"alternative disability index, Change from Baseline, Median","Day 12, dose cilnidipine 20 mg",−0.125
same,"alternative disability index, Percent Change from Baseline, Mean","Day 12, dose cilnidipine 20 mg",−41.67%
same,"alternative disability index, Percent Change from Baseline, Median","Day 12, dose cilnidipine 20 mg",−41.67%
same,"alternative disability index, In Clinic Visit (Day 12), Mean",dose cilnidipine 10 mg,0.563
same,"alternative disability index, In Clinic Visit (Day 12), Median",dose cilnidipine 10 mg,0.500
same,"alternative disability index, In Clinic Visit (Day 12), Mean",dose cilnidipine 20 mg,0.125
same,"alternative disability index, In Clinic Visit (Day 12), Median",dose cilnidipine 20 mg,0.125
same,"SHAQ Alternative Disability Index, Change from Baseline, Mean",[4],0.021
same,"SHAQ Alternative Disability Index, Percent Change from Baseline, Median",[4],−10.00%
same,"SHAQ Alternative Disability Index, Change from Baseline, Mean","Pooled Cilnidipine 20 mg and Cilnidipine 20 mg + Tadalafil 5 mg (N = 8), Day 12, PP Population, Part A",−0.036
same,"SHAQ Alternative Disability Index, Change from Baseline, Mean",[5],0.031
same,"SHAQ Alternative Disability Index, Change from Baseline, Mean (SD)",[5],0.031 (0.1860)
same,"SHAQ Alternative Disability Index, In-Clinic Visit (Day 12), Mean (SD)",[5],0.391 (0.4884)
same,"SHAQ Alternative Disability Index, Percent Change from Baseline, Mean (SD)",[5],9.68 (61.446) %
same,"SHAQ Alternative Disability Index, Percent Change from Baseline, Median",[5],−11.11%
same,% change in Alternative Disability Index,Pooled Cilnidipine (n = 7),−13%
